Data as given in publication PMC8962522, “Direct interaction of TrkA/CD44v3 is essential for NGF-promoted aggressiveness of breast cancer cells” (Journal of Experimental & Clinical Cancer Research : CR, 2022).

Key:
Type in all cases: cell-based
[1] = test system: SUM-159-PT cells; assay: Clonogenicity assay, SUM-159-PT; settings: Supplementary Fig. 9 A & B (P4; same observations = colony forming units reduced as in MDA-MB-231), Supplementary Fig. 10 B (siCD44v3)
[2] = test system: RhoA in MDA-MB-231 cells expressing kinase-dead TrkA; assay: Ratiometric FRET RhoA activation, kinase-dead TrkA cells; settings: for relocation of activated RhoA to the migration front / local RhoA activation, in words: 25 min NGF, relocation observed with scramble peptide
Method: MDA-MB-231 native or KD cells were seeded (5000 cells/well; ovn, 37 °C) in a chambered coverglass system (Lab-Tek®) coated with a type I collagen matrix (100 μg/mL; Corning). These cells were transfected using the pBabe-puro-RhoA plasmid (0.15 μg; Addgene plasmid #12602) diluted in a buffer solution (JetOPTIMUS® buffer) and a transfection agent (TA; 10 min). The mixture was incorporated into the culture medium (4 h; 37 °C). Two to three hours before image acquisition, the cells expressing the RhoA biosensor were starved in fresh EMEM containing 0.1% FBS and no phenol red. During image acquisition, the cells were maintained at 37 °C and with 5% CO2 in an incubation chamber installed under a microscope. Images were collected using a ZEISS LSM 880 confocal microscope with a plan-apochromat 63×/1.4 oil differential interference contrast (DIC) objective. The argon laser was tuned to emit 458 nm and 514 nm laser lines through a 470 to 500 nm bandpass emission filter (BP470–500) for CFP detection and a 530 nm longpass emission filter (LP530) for YFP detection. The emission of the CFP, FRET and YFP channels was recorded. The fluorescence emission ratios were computed using ImageJ software, which was also used to generate a report showing the FRET efficiency and intensity signal for each channel.
To further elucidate the mechanism of action of CD44v3 mimetic peptide 4, we studied its effect on the TrkA signaling pathway. […] Additionally, to confirm that this effect was independent of TrkA phosphorylation, we measured RhoA activation in MDA-MB-231 cells expressing dead TrkA kinase, which cannot be phosphorylated (Fig. 5D). […]
Fig. 5 CD44v3 is implicated in the phospho-TrkA-independent activation of RhoA GTPase. Phosphorylation of TrkA was measured in the presence of a scramble peptide or CD44v3 mimetic peptide 4 (P4) in the presence or absence of NGF (A). […] Phosphorylation of TrkA and downstream Akt in wild-type MDA-MB-231 and MDA-MB-231 cells expressing kinase-dead TrkA, as determined by western blotting (D). […]

[3] = test system: TrkA/CD44v3 complex in BT-474 cells; assay: PLA TrkA/CD44v3 complex formation in BT-474 cells; settings: luminal B; NGF 100 ng/ml
Method: Cells (10,000 cells per well) were grown on acid-washed eight-well glass slides (Thermo Scientific) in the appropriate medium supplemented with 10% FBS for 24 h. After NGF treatment, paraformaldehyde (PAF)-fixed cells were incubated with 4% bovine serum albumin (BSA) or 5% FBS (for 1 h at 20 °C), followed by overnight incubation with primary antibodies (rabbit anti-TrkA or rabbit anti-IgG + mouse anti-pan-CD44; mouse anti-CD44v3; mouse anti-CD44v6; mouse anti-IgG2a; mouse anti-IgG2b; or mouse anti-IgG1). PLA was performed following the manufacturer’s instructions in the assay kit (Duolink PLA; Sigma–Aldrich). To obtain the correct representation of the PLA signal for each condition, 30 fields per condition were observed using a fluorescence microscope (Eclipse TiU; Nikon, Japan). The PLA signals (red dots) were automatically quantified using ImageJ software (with an in-house-developed plug-in). […]
Fig. 7 The TrkA/CD44v3 complex is formed in PR-negative breast cancer cells and tumors. TrkA/CD44v3 complex formation was measured in SUM159-PT (triple negative—i.e., ERα-, PR-, and Her2-) cells (A), T47-D (luminal A—i.e., ERα+, PR+, and Her2-) cells (B), BT-474 (luminal B—ERα+, PR+, and Her2+) cells (C), HCC-1954 (Her2-like—ERα-, PR-, and Her2+) cells (D), and 150 tumor patient samples obtained from US BioMax (HBre-Duc150Sur01) (E, F) using the proximity ligation assay (PLA). […]

Row | Substance | effect on clonogenic growth of SUM-159-PT cells [1] | relocation of activated RhoA to the migration front / local RhoA activation, in words ([2]; not with peptide 4, listed as CD44v3 mimetic peptide 4) | relocation of activated RhoA to the migration front / local RhoA activation, in words ([2]; not with peptide 4, listed as P4) | NGF-induced increase in proportion of active RhoA, in words ([2]; 45 min NGF, statement: increased with scramble peptide, not with peptide 4) | effect on TrkA/CD44v3 complex formation (PLA) in BT-474 cells [3]
1 | IDDDEDFISST [Peptide 4, mimetic peptide 4 (…) corresponding to the C-terminal region of CD44v3] | The same observations were made in SUM-159PT | relocation of activated RhoA to the migration front of the control cells with the scramble peptide after 25 min of NGF treatment but not with CD44v3 mimetic peptide 4 | impedes local RhoA activation independent of TrkA phosphorylation | NGF increased the proportion of active RhoA after 45 min in the presence of the scramble peptide (Fig. 5E) but not CD44v3 mimetic peptide 4 | 
2 | NGF: recombinant human β-NGF (Alomone Labs, Israel) |  |  |  |  | NGF induction was insufficient to modulate TrkA/CD44v3 complex formation in BT-474 (luminal B) cells
